Read-outs that look alike come from different tables or passages of the source.
Key:
[1] = 15 min; cited from earlier work
[2] = tested on: NPS-induced hyperlocomotion; conditions: 50 mpk IP, 90 minute mouse model; cited from earlier work
NPSR [3] = target: T1, NPSR (Homo sapiens, UniProt Q6W5P4); assay: ERK assay; type: cell-based
T1 sequence (Q6W5P4 1-371): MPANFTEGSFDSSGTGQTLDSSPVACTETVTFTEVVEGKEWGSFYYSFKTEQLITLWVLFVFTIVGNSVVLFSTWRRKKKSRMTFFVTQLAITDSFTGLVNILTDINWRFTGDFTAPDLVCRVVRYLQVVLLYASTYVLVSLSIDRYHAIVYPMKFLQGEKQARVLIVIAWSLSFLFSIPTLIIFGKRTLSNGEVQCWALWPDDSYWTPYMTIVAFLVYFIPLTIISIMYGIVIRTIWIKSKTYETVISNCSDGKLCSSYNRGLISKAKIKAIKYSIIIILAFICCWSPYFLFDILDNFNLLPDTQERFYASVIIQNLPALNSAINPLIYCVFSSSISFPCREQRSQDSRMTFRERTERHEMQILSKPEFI

NPSR [4] = target: T1, NPSR; assay: Calcium mobilization assay in CHO-NPSR cells; type: cell-based
[5] = Mouse pharmacokinetics, 10 mpk IP; type: in vivo
55 targets = assay: Profiling at 10 µM against 55 targets
NPSR [6] = target: T1, NPSR; assay: cAMP assay; type: cell-based; conditions: relative to 1b
[7] = Stability after incubation in mouse liver microsomes; conditions: 0 min
NPSR [8] = target: T1, NPSR; assay: [125I] Y10-hNPS binding; conditions: relative to 1b
rats = conditions: cited from earlier work
[9] = target: Human Recombinant µ-Opioid Receptor OPRM1 (Homo sapiens, UniProt P35372); type: binding
Wistar rats [10] = assay: Rat palatable food intake model; type: in vivo
ERK phosphorylation = conditions: rats, 1 mpk; cited from earlier work
Solubility in PBS = type: physicochemical; conditions: aqueous buffer
NPSR [11] = conditions: 30 mpk IP, discrete regions of the rat brain; cited from earlier work
[12] = 0 h
[13] = Stability in aqueous buffers; type: physicochemical; conditions: HBBS or PBS, 48 hours
Wistar rats [14] = conditions: rat food intake model; cited from earlier work

Sequence of Human Recombinant µ-Opioid Receptor OPRM1 (P35372 whole entry): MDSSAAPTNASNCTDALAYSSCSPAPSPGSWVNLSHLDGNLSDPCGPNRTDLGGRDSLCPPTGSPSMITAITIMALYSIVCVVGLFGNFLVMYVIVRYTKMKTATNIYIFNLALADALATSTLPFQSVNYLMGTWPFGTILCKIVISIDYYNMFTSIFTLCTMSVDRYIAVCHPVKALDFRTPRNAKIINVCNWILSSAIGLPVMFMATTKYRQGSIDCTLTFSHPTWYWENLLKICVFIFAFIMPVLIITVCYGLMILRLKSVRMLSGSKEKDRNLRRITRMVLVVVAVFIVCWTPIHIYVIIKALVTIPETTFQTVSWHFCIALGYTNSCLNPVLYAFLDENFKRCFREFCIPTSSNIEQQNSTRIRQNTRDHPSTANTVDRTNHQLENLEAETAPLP

Molecule: O=C(NCc1ccc(F)cc1)N1CCN2C(=O)OC(c3ccccc3)(c3ccccc3)C2C1 (centres unmarked) [1b, 3-oxo-1,1-diphenyl-tetrahydro-oxazolo[3,4-a]pyrazine-7-carboxylic acid 4-fluoro-benzylamide]
- brain level [1]: ~6000 nM
- reduction of NPS-induced hyperlocomotion [2]: about 50%

Molecule: Cc1nc2ccccn2c1P(=S)(c1ccccc1)c1ccccc1 [12d, 3-(Diphenylphosphorothioyl)-2-methylimidazo[1,2-a]pyridine]
- IC50 (NPSR [3]; ERK IC50, Table 1, CHO-NPS cells, 1 nM NPS (EC80), one experiment in duplicate): 30 nM

Molecule: C[n+]1cc(P(=S)(c2ccccc2)c2ccccc2)n2ccccc21 [13a, 3-(Diphenylphosphorothioyl)-1-methylimidazo[1,2-a]pyridin-1-ium]
- ERK assay inhibition at the highest concentration tested (NPSR [3]; Table 1 footnote b, 50 µM): <50% ^b

Molecule: Cc1c(P(=S)(c2ccccc2)c2ccccc2)n2ccccc2[n+]1CCCc1ccccc1 [20d, 3-(Diphenylphosphorothioyl)-2-methyl-1-(3-phenylpropyl)imidazo[1,2-a]pyridin-1-ium]
- IC50 (NPSR [3]; IC50 in the ERK assay): 2 nM
- IC50 (NPSR [4]; IC50 in the calcium assay): 1 nM

Molecule: Cc1c(P(=S)(c2ccccc2)c2ccccc2)n2ccccc2[n+]1C/C=C/c1ccccc1.[Br-] [20e, 1-Cinnamyl-3-(diphenylphosphorothioyl)-2-methylimidazo[1,2-a]pyridin-1-ium]
- Brain concentration, mean ([5]; 10 mpk IP, 0 hr): BQL
- Plasma concentration, mean ([5]; 10 mpk IP, 0 hr): BQL
- Brain concentration, mean ([5]; 10 mpk IP, 0 hr, N=3): BQL
- Plasma concentration, mean ([5]; 10 mpk IP, 0 hr, N=3): BQL
- Brain concentration, mean ([5]; 10 mpk IP, 0.083 hr): 30 nmol/g
- Brain concentration, mean ([5]; 10 mpk IP, 0.25 hr): 52 nmol/g
- Brain concentration, mean ([5]; 10 mpk IP, 0.5 hr): 53 nmol/g
- Brain concentration, mean ([5]; 10 mpk IP, 1 hr): 44 nmol/g
- Brain concentration, mean ([5]; 10 mpk IP, 2 hr): 57 nmol/g
- Brain concentration, mean ([5]; 10 mpk IP, 4 hr): 53 nmol/g
- Brain concentration, mean ([5]; 10 mpk IP, 8 hr): 60 nmol/g
- Brain concentration, mean ([5]; 10 mpk IP, 12 hr): 93 nmol/g
- Brain concentration, mean ([5]; 10 mpk IP, 24 hr): 52 nmol/g
- concentration at 1 h ([5]; plasma, ip, 10 mg/kg, Plasma concentration, mean, 10 mpk IP, 1 hr): 556 nM
- concentration at 2 h ([5]; plasma, ip, 10 mg/kg, Plasma concentration, mean, 10 mpk IP, 2 hr): 386 nM
- concentration at 4 h ([5]; plasma, ip, 10 mg/kg, Plasma concentration, mean, 10 mpk IP, 4 hr): 245 nM
- concentration at 8 h ([5]; plasma, ip, 10 mg/kg, Plasma concentration, mean, 10 mpk IP, 8 hr): 214 nM
- concentration at 12 h ([5]; plasma, ip, 10 mg/kg, Plasma concentration, mean, 10 mpk IP, 12 hr): 126 nM
- concentration at 24 h ([5]; plasma, ip, 10 mg/kg, Plasma concentration, mean, 10 mpk IP, 24 hr): 54 nM
- adverse reactions ([5]; single 10 mpk IP dose): No adverse reactions were observed
- inhibition of control in seven of 55 targets (55 targets): > 90%
- fold more potent than 1b in the cAMP assay (NPSR [6]): 9 fold
- % parent compd remaining after incubation in mouse liver microsomes ([7]; with NADPH): 100%
- % parent compd remaining after incubation in mouse liver microsomes ([7]; without NADPH): 94%
- fold more potent than 1b in the displacement assay (NPSR [8]): 5 fold
- efficacy in rat alcohol models (rats; IP dose of 1.0 mpk): show efficacy
- alcohol self administration in rats (rats; dose as low as 1 mpk): supression of alcohol self administartion
- fold activity relative to naloxone or morphine, DAMGO displacement [9]: < 200 fold
- fold more potent than 1b in the calcium assay (NPSR [4]; relative to 1b): 5 fold
- reversal of NPS-induced suppression of palatable food intake (Wistar rats [10]; single 10 µg icv, before 10 µg NPS icv, 15, 30 and 60 min): reverse the suppression of food intake
- alcohol induced ERK phosphorylation in the central amygdala (ERK phosphorylation): reduce alcohol induced ERK phosphorylation
- solubility kinetic (Solubility in PBS; kinetic from dmso stock): > 150 µM
- solubility thermodynamic (Solubility in PBS; thermodynamic from solid): ~45 µM

Molecule: CCC(C)(CCN1CCOCC1)N(Cc1cc2ccccc2n(C)c1=O)C(=O)C1CCCCC1 (centres unmarked) [compound 2]
- ex vivo occupancy of NPSR (NPSR [11]): high ex vivo occupancy of NPSR
- % parent compd remaining after incubation in mouse liver microsomes [12]: 100%

Molecule: Cc1c(P(=S)(c2ccccc2)c2ccccc2)[n+]2ccccc2n1C.[I-] [compound 7, 3-(diphenylphosphorothioyl)-1,2-dimethylimidazo[1,2-a]pyridin-1-ium]
- chemical stability in aqueous buffers [13]: did not decompose to any other species

Molecule: NPS: neuropeptide S, peptide sequence SFRNGVGTGMKKTSFQRAKS, endogenous agonist of NPSR [reference compound]
- palatable food intake (Wistar rats [10]; 10 µg NPS icv, 15, 30 and 60 min): marked reduction in food intake

Molecule: [D-Cys(tBU)^5]NPS
- reversal of the anorectic effect of NPS (Wistar rats [14]): reverse the anorectic effect of NPS

Source: PMC4877059 (Journal of medicinal chemistry, 2013)
